# Experimental data: patent US20060275800A1, “Process for characterization of the transactivation and transrepression activity of glucocorticoid receptor ligands in primary immune cells” (priority 2005, published 2006)
# Tests used:
# [1] = test system: CD163; assay: In vitro mRNA expression of CD163 (transactivation parameter) in unstimulated human PBMC cultures; type: cell-based; settings: for Transactivation vs. Prednisolone CD163: mRNA, PBMC cultures, GR-ligand/prednisolone quotient; for induction of CD163 (in words): single substance
# From the text: (§1) Regarding the definition of suitable parameters, the regulation, mediated by standard glucocorticoids and selective GR ligands, of more than 50 genes in primary human immune cells was examined in a broad screening approach. Selected genes were further characterized in vitro and in vivo in kinetic experiments. […] Decisive criteria for the parameter selection were 1) the consistent reflection of transactivation or transrepression properties of GR ligands, 2) the detection of the regulation in non-stimulated immune cells, and 3) the quick reaction of the gene expression in in vitro assays (the 4-hour time period was used for the screening), and the good and enduring detectability after in vivo application of GR ligands. These properties make it likely that a direct regulation of the gene expression by the GR ligands will take place and that the parameters will be usable in in vivo studies (e.g., as biomarkers).
# (§2) To have a comparison with a standard GK, the GR-ligand-influenced gene expressions for these parameters were normalized to the gene expression after treatment with the standard GK, prednisolone. […] It is clear to one skilled in the art that the normalization could also in principle be related to any other glucocorticoid.
# (§3) For gene suppression, the “prednisolone/GR ligand” quotient was derived for purposes of normalization, i.e., a lower value (<1) indicates a relatively weaker suppression by the GR ligands (higher values in the residual gene expression).
# (§4) For the mRNA detection, the total RNA was isolated from the respective samples (human PBMC or human whole blood or spleen cells from mice), transcribed in the cDNA and amplified and detected below by means of Real-time TaqMan-PCR (Applied Biosystems). A relative quantification in comparison to the expression of the “house-keeping” gene HPRT was carried out. In each case, the ratio of the result for the GR ligands to the result of the vehicle control is plotted.
# [2] = test system: FKBP51; assay: In vitro mRNA expression of FKBP51 (transactivation parameter) in unstimulated human PBMC cultures; type: cell-based; settings: for Transactivation vs. Prednisolone FKBP51: mRNA, PBMC cultures, GR-ligand/prednisolone quotient
# From the text: as §1, §2, §3, §4
# [3] = test system: IL-1β; assay: In vitro mRNA expression of IL-1β (transrepression parameter) in unstimulated human PBMC cultures; type: cell-based; settings: for Transrepression vs. Prednisolone IL-1β: mRNA, PBMC cultures, prednisolone/GR ligand quotient; for suppression of the mRNA expression of IL-1β (in words): human PBMC cultures, single substance
# From the text: as §1, §2, §3, §4
# [4] = test system: TNF-α; assay: In vitro mRNA expression of TNF-α (transrepression parameter) in unstimulated human PBMC cultures; type: cell-based; settings: for Transrepression vs. Prednisolone TNF-α: mRNA, PBMC cultures, prednisolone/GR ligand quotient; for suppression of the mRNA expression of TNF-α (in words): human PBMC cultures, single substance
# From the text: as §1, §2, §3, §4
# [5] = test system: CD163; assay: Time-dependent CD163 mRNA expression in human whole-blood cultures; type: cell-based
# Experimental: as §4
# (§5) For the parameters CD163 and FKBP51, in addition, the time-dependent influence of CR ligands on the mRNA expression in human whole-blood cultures was examined.
# [6] = test system: FKBP51; assay: Time-dependent FKBP51 mRNA expression in human whole-blood cultures; type: cell-based
# Experimental: as §4, §5
# [7] = test system: transrepression (TNF-α and IL-1β) and transactivation (CD163 and FKBP51); assay: Transrepression/transactivation ratio (dissociation factor) in human PBMC cultures; type: cell-based; settings: PBMC cultures, 1, 2, 4, 12 and 24 hours
# From the text: As parameters that could [make] reference to the mechanism of the transrepression, TNF-α and IL-1β were selected. CD163 and FKBP51 are used to detect the transactivation activity.
# Below, a ratio between the transrepression and transactivation parameters that are normalized to prednisolone was derived according to formula 2: [formula]
# The factors for the transactivation and transrepression activity were averaged geometrically and put into a ratio with one another. […] The higher the ratio, the more dissociated the GR ligand is in comparison to prednisolone (ratio=1). [drawing]
# Figure: Ratios for Visualization of the In Vitro Dissociation of the GR Ligands in Comparison to Prednisolone in PBMC Cultures (n—3) after 1, 2, 4, 12 and 24 Hours.
# The ratios were calculated after the normalization of the gene expression values to prednisolone from the quotient of the geometric means of the parameters for transrepression (TNF-α and IL-1β) and for transactivation (CD163 and FKBP51). Mean values±SD.
# [8] = test system: MMTV promoter; assay: MMTV promoter luciferase transactivation assay in HeLa cells; type: cell-based, human
# From the text: The promoter of the mouse mammary tumor virus (MMTV) contains specific binding sites for the activated GR (so-called GREs). This promoter was cloned before a reporter gene (luciferase), and the construct was integrated in a stable manner in the genome of the human cell line HeLa (cervix carcinoma cells). By adding test and reference substances, the MMTV promoter is activated, and the luciferase, whose activity can be detected by means of photometric measurement, is expressed.
# (§6) The activities of SEGRA substances in the respective transactivation and transrepression systems are determined in comparison to the activities of the reference substance dexamethasone.
# [9] = test system: tyrosinaminotransferase (TAT); assay: Induction of tyrosinaminotransferase (TAT) activity in rat hepatoma cells (H4IIE3); type: cell-based; settings: for effectiveness, induction of the TAT activity, % of the maximum dexamethasone effect / EC50: agonism, n=2; for EC50: read-out: power, induction of the TAT activity
# Experimental: In a second transactivation system, the induction of the tyrosinaminotransferase (TAT) by glucocorticoids is determined. In the promoter of the gene for the TAT, GREs are also located, so that this gene is expressed in an enhanced form by binding of the ligand-activated GR. To this end, rat hepatoma cells (H4IIE3) are treated for 24 hours with test and reference substances, and then the TAT activity is determined by photometry. For the two assays, both the detection of agonistic actions of the SEGRA substances in the transactivation and the detection of antagonistic actions in the induction of the parameters by other GR ligands are possible.
# as §6
# [10] = test system: transactivation parameters; assay: Gene induction in human PBMC (transactivation profile); type: cell-based; settings: mRNA
# Experimental: as §4
# Below, by way of example, the application of the characterization of the transactivation and transrepression activity of selective GR ligands by means of gene expression analysis in primary immune cells is shown comparatively based on two SEGRA substances, the agonist in the transactivation, compound 1, and the antagonist in the transactivation, compound 2. The molecular mechanism of these substances had been previously characterized in the usual assays (see 5.2 and 5.3). The gene expression analysis was performed by means of quantitative Real-Time-TaqMan-PCR. The ratios (mean value±standard deviation) of the results for the GR ligands to the results for the vehicle control are shown.
# In contrast to this, the different transactivation profile of the SEGRA substances is reflected in differing degrees of gene induction.
# [11] = test system: FKBP51; assay: In vivo expression of FKBP51 in spleen cells of treated mice; settings: after 24 hours
# Experimental: as §4
# (§7) The in vivo regulation of the expression of selected genes was characterized in the spleen cells of SEGRA-treated mice after 24 hours.
# [12] = test system: CD163; assay: In vivo expression of CD163 in spleen cells of treated mice; settings: after 24 hours
# Experimental: as §4, §7
# [13] = test system: GILZ; assay: In vivo expression of GILZ in spleen cells of treated mice; settings: after 24 hours
# Experimental: as §4, §7
# [14] = test system: glutamine synthetase; assay: In vivo expression of glutamine synthetase in spleen cells of treated mice; settings: after 24 hours
# Experimental: as §4, §7
# [15] = test system: inflammatory cytokines; assay: In vivo expression of inflammatory cytokines in spleen cells of treated mice; settings: after 24 hours, vs vehicle control
# Experimental: as §4, §7
# [16] = human PBMC cultures, antagonism
Compound,Transactivation vs. Prednisolone CD163 ([1]; 1 hour),Transactivation vs. Prednisolone CD163 ([1]; 2 hours),Transactivation vs. Prednisolone CD163 ([1]; 4 hours),Transactivation vs. Prednisolone CD163 ([1]; 12 hours),Transactivation vs. Prednisolone CD163 ([1]; 24 hours),Transactivation vs. Prednisolone FKBP51 ([2]; 1 hour),Transactivation vs. Prednisolone FKBP51 ([2]; 2 hours),Transactivation vs. Prednisolone FKBP51 ([2]; 4 hours),Transactivation vs. Prednisolone FKBP51 ([2]; 12 hours),Transactivation vs. Prednisolone FKBP51 ([2]; 24 hours),Transrepression vs. Prednisolone IL-1β ([3]; 1 hour),Transrepression vs. Prednisolone IL-1β ([3]; 2 hours),Transrepression vs. Prednisolone IL-1β ([3]; 4 hours),Transrepression vs. Prednisolone IL-1β ([3]; 12 hours),Transrepression vs. Prednisolone IL-1β ([3]; 24 hours),Transrepression vs. Prednisolone TNF-α ([4]; 1 hour),Transrepression vs. Prednisolone TNF-α ([4]; 2 hours),Transrepression vs. Prednisolone TNF-α ([4]; 4 hours),time-dependent influence on CD163 mRNA expression [5],time-dependent influence on FKBP51 mRNA expression [6],other results
"C[C@@H]1C[C@H]2[C@@H]3CCC4=CC(=O)C=C[C@]4(C)[C@@]3(F)[C@@H](O)C[C@]2(C)[C@@]1(O)C(=O)CO [Dexamethasone, dexamethasone]",1.02,1.89,1.34,1.13,1.04,0.89,1.13,1.08,1.07,1.05,0.61,0.69,1.27,0.96,1.16,0.80,0.85,1.01,–,–,Transrepression vs. Prednisolone TNF-α ([4]; 12 hours): 1.00; Transrepression vs. Prednisolone TNF-α ([4]; 24 hours): 0.97
"C[C@]12C=CC(=O)C=C1CC[C@@H]1[C@@H]2[C@@H](O)C[C@@]2(C)[C@H]1CC[C@]2(O)C(=O)CO [Prednisolone, prednisolone]",1.00,1.00,1.00,1.00,1.00,1.00,1.00,1.00,1.00,1.00,1.00,1.00,1.00,1.00,1.00,1.00,1.00,1.00,induced the expression of these genes permanently,induced the expression of these genes permanently,"induction of CD163 (in words) ([1]; human PBMC cultures): induced; induction of FKBP51 (in words) ([2]; human PBMC cultures, single substance): induced; suppression of the mRNA expression of IL-1β (in words) [3]: suppression; suppression of the mRNA expression of TNF-α (in words) [4]: suppression; Transrepression vs. Prednisolone TNF-α ([4]; 12 hours): 1.00; Transrepression vs. Prednisolone TNF-α ([4]; 24 hours): 1.00; dissociation factor (transrepression/transactivation ratio vs prednisolone) [7]: largely comparable"
Cc1noc(=O)c2ccc(NC(=O)C(O)(CC(C)(C)c3cccc4c3OCO4)C(F)(F)F)cc12 (centres unmarked) [compound 1],–,–,–,–,–,–,–,–,–,–,–,–,–,–,–,–,–,–,induced the expression of these genes permanently,induced the expression of these genes permanently,"antagonistic effect in the MMTV promoter assay (in words) [8]: antagonistic effect neither; EC50 ([8]; Homo sapiens, agonism, n=2, read-out: power, induction of the activity of the MMTV promoter): 10 ± 1.4 nM; effectiveness, induction of the MMTV promoter, % of the maximum dexamethasone effect ([8]; agonism, n=2): 73±2.8%; effectiveness, induction of the TAT activity, % of the maximum dexamethasone effect ([9]; rat hepatoma cells): 86±12.7%; EC50 ([9]; rat hepatoma cells): 5.7 ± 0.6 nM; gene induction [10]: clearly induces; expression of FKBP51 [11]: clear induction; expression of CD163 [12]: clear induction; expression of GILZ [13]: clear induction; expression of glutamine synthetase [14]: clear induction"
Cc1noc(=O)c2ccc(NC(=O)C(O)(CC(C)(C)c3cc(F)ccc3C(F)(F)F)C(F)(F)F)cc12 (centres unmarked) [compound 2],–,–,–,–,–,–,–,–,–,–,–,–,–,–,–,–,–,–,did not lead to the increase of the gene expression,did not lead to the increase of the gene expression,"CD163 expression in all batches ([1]; human PBMC cultures, alone and with prednisolone): reduced; induction of CD163 on simultaneous administration with prednisolone, in comparison to prednisolone alone [1, 16]: clearly lower; induction of CD163 (in words) ([1]; human PBMC cultures): not; induction of FKBP51 on simultaneous administration with prednisolone, in comparison to prednisolone alone [2, 16]: clearly lower; suppression of the mRNA expression of IL-1β (in words) [3]: suppression; suppression of the mRNA expression of TNF-α (in words) [4]: suppression; antagonistic effect in the MMTV promoter assay (in words) [8]: clear antagonist; IC50 ([8]; Homo sapiens, antagonism, n=3, read-out: power, antagonism of the MMTV promoter activity induced by dexamethasone): 85 ± 12 nM; effectiveness, antagonism of dexamethasone-induced MMTV promoter activity, % of the maximum effect of the GR antagonist RU 486 ([8]; antagonism, n=3): 119±3.6%; Emax ([9]; Rattus norvegicus, at a concentration of 1 μmol, read-out: antagonism of the dexamethasone-induced TAT activity, % of the maximum effect of RU 486): 35%; effectiveness, induction of the TAT activity, % of the maximum dexamethasone effect ([9]; rat hepatoma cells): 43.5±10.6%; EC50 ([9]; rat hepatoma cells): 67 ± 10 nM; behaviour in the TAT promoter (in words) ([9]; rat hepatoma cells): partial agonist; gene induction [10]: lower gene induction or no gene induction; inhibition of the inflammatory cytokines (transrepression) [15]: less pronounced; expression of FKBP51 [11]: reduces the expression; expression of CD163 [12]: reduces the expression; expression of GILZ [13]: reduces the expression; expression of glutamine synthetase [14]: reduces the expression"
